Source: the NIST ThermoML archive (doi:10.1016/j.fluid.2015.03.012)
± gives the expanded uncertainty stated by the source.

Assay: mn = molality of the nth substance listed, in mol/kg
Conditions: Survismeter

C[C@H](CCC(=O)[O-])[C@H]1CC[C@H]2[C@@H]3CC[C@@H]4C[C@H](O)CC[C@]4(C)[C@H]3C[C@H](O)[C@]12C.[Na+] [sodium deoxycholate] + O
surface tension liquid-gas [mN/m]
Conditions | 293.15 K | 298.15 K | 303.15 K | 308.15 K | 313.15 K | 318.15 K
m1 = 0.001 | 58.04 ± 1.2 | 55.92 ± 1.2 | 54.2 ± 1.3 | 54.06 ± 1.1 | 54.23 ± 1 | 54.09 ± 1.1
m1 = 0.002 | 55.17 ± 1 | 53.25 ± 1 | 51.68 ± 0.95 | 51.56 ± 0.95 | 51.75 ± 0.9 | 51.62 ± 0.89
m1 = 0.003 | 53.42 ± 1 | 51.34 ± 1 | 49.87 ± 0.93 | 49.77 ± 0.96 | 50.21 ± 0.92 | 50.1 ± 0.79
m1 = 0.004 | 50.47 ± 1.1 | 48.6 ± 1.1 | 47.5 ± 0.84 | 47.19 ± 0.87 | 47.62 ± 0.88 | 48.2 ± 0.83
m1 = 0.005 | 48.29 ± 0.93 | 46.35 ± 0.81 | 46.18 ± 0.62 | 45.89 ± 0.61 | 46.32 ± 0.61 | 46.44 ± 0.72
m1 = 0.006 | 46.29 ± 0.73 | 45.1 ± 0.52 | 45.13 ± 0.52 | 44.86 ± 0.52 | 45.29 ± 0.52 | 45.21 ± 0.57
m1 = 0.007 | 45.25 ± 0.44 | 44.7 ± 0.4 | 44.53 ± 0.41 | 44.27 ± 0.42 | 44.69 ± 0.42 | 44.42 ± 0.43
m1 = 0.009 | 44.86 ± 0.41 | 44.51 ± 0.4 | 44.34 ± 0.4 | 43.89 ± 0.4 | 44.11 ± 0.4 | 44.04 ± 0.4
m1 = 0.011 | 44.66 ± 0.4 | 44.32 ± 0.4 | 44.16 ± 0.4 | 44.09 ± 0.4 | 44.31 ± 0.4 | 44.24 ± 0.4
m1 = 0.013 | 44.87 ± 0.4 | 44.53 ± 0.4 | 44.16 ± 0.4 | 43.9 ± 0.4 | 44.32 ± 0.4 | 44.24 ± 0.4
m1 = 0.015 | 45.08 ± 0.4 | 44.73 ± 0.4 | 44.17 ± 0.4 | 44.1 ± 0.4 | 44.14 ± 0.4 | 44.06 ± 0.4
m1 = 0.017 | 44.89 ± 0.4 | 44.54 ± 0.4 | 44.18 ± 0.4 | 44.3 ± 0.4 | 44.14 ± 0.4 | 44.26 ± 0.4

C[C@H](CCC(=O)[O-])[C@H]1CC[C@H]2[C@@H]3[C@H](O)C[C@@H]4C[C@H](O)CC[C@]4(C)[C@H]3C[C@H](O)[C@]12C.[Na+] [sodium cholate] + O
surface tension liquid-gas [mN/m]
Conditions | 293.15 K | 298.15 K | 303.15 K | 308.15 K | 313.15 K | 318.15 K
m1 = 0.001 | 63.15 ± 0.74 | 62.55 ± 0.69 | 61.55 ± 0.81 | 61.35 ± 0.59 | 60 ± 0.66 | 59.45 ± 0.67
m1 = 0.002 | 61.61 ± 0.67 | 61.03 ± 0.66 | 60.07 ± 0.65 | 59.88 ± 0.64 | 58.96 ± 0.57 | 58.1 ± 0.57
m1 = 0.003 | 60.5 ± 0.59 | 59.94 ± 0.59 | 59.01 ± 0.53 | 58.83 ± 0.58 | 57.95 ± 0.56 | 57.45 ± 0.51
m1 = 0.004 | 59.43 ± 0.61 | 58.89 ± 0.57 | 58.33 ± 0.58 | 57.82 ± 0.59 | 56.98 ± 0.55 | 56.5 ± 0.54
m1 = 0.006 | 57.08 ± 0.58 | 56.89 ± 0.56 | 56.04 ± 0.55 | 55.58 ± 0.55 | 55.14 ± 0.54 | 54.69 ± 0.53
m1 = 0.008 | 55.21 ± 0.5 | 55.03 ± 0.52 | 54.52 ± 0.5 | 54.09 ± 0.5 | 53.41 ± 0.51 | 52.99 ± 0.5
m1 = 0.01 | 54.04 ± 0.49 | 53.57 ± 0.49 | 53.09 ± 0.48 | 52.68 ± 0.47 | 52.05 ± 0.45 | 51.65 ± 0.47
m1 = 0.014 | 51.04 ± 0.44 | 50.87 ± 0.43 | 50.43 ± 0.43 | 50.32 ± 0.43 | 50.26 ± 0.43 | 49.42 ± 0.43
m1 = 0.018 | 50.55 ± 0.4 | 50.64 ± 0.4 | 50.2 ± 0.4 | 49.59 ± 0.4 | 49.07 ± 0.41 | 48.73 ± 0.4
m1 = 0.022 | 50.83 ± 0.4 | 50.4 ± 0.4 | 50.22 ± 0.4 | 49.61 ± 0.4 | 49.09 ± 0.4 | 48.75 ± 0.4
m1 = 0.026 | 50.59 ± 0.4 | 50.17 ± 0.4 | 49.99 ± 0.4 | 49.63 ± 0.4 | 49.11 ± 0.4 | 48.77 ± 0.4
m1 = 0.03 | 50.62 ± 0.4 | 50.2 ± 0.4 | 50.26 ± 0.4 | 49.9 ± 0.4 | 49.37 ± 0.4 | 48.56 ± 0.4
